Data on one compound can be found in US20110207655A1, “CYCLIC DEPSIPEPTIDE COMPOUND AND USE THEREOF” (Astellas Pharma Inc., priority 2008, published 2011).

Starred links: 1 amine or outer side, 2 acyl side, 3 side chain; linkers in the order of their positions; H or OH if unused. Positions of bridges follow the written chain, without caps; N, C: chain ends. Non-standard residues stand in square brackets, D forms with d. Residues, ends and D or L forms follow the SMILES beside them. Leu(3R-O(AcLeu(3R-OH))) = CC(=O)N[C@H](C(=O)O[C@H](C(C)C)[C@H](N)C(=O)O)[C@H](O)C(C)C; X1 = CO[C@H](C)C(C(=O)[*:2])N(C)[*:1]; dPhLac = O=C(O)[C@H](O)Cc1ccccc1; NMeA = CN[C@@H](C)C(=O)O; NMeDha = C=C(NC)C(=O)O

Data set [1] deals with human platelet aggregation caused by ADP. The conditions noted are these: Patent Citation 1, Non-Patent Citation 1; cited from earlier work.
For data set [2], the system named is G15 and G16. Conditions: Non-Patent Citation 3; cited from earlier work.
The test system of data set [3] is carotid artery pressure. Description: Action on the carotid pressure by intratracheal administration. The class given is in vivo, SD male rats. Conditions: rats. The procedure:
SD male rats (Charles River Laboratories Japan, Inc.) were used in experiments. Urethane (1.2 g/kg) was administered intraperitoneally to the rats for anesthesia. Cannulation for […] was carried out in the carotid artery and a pressure transducer (TP-400T, Nihon Kohden Corporation) was connected. The cannula for measuring blood pressure and a pressure transducer were filled with 5% heparin physiological saline. The pressure signal was amplified with a strain pressure amplifier (AP-601G, Nihon Kohden Corporation) and recorded on chart paper by a thermal pen recorder (WT-685G, Nihon Kohden Corporation). The body temperature of the rats was maintained at 37° C. using a body temperature-maintaining device (BWT-100, Bio Research Center). The trachea was exposed, and using needles (27 G), the test compounds (30 or 100 μg/kg) at a volume of 0.5 mL/kg or physiological saline was administered by direct intratracheal injection. For the group administered with 30 μg/kg, 5 animals were used, for the group administered with 100 μg/kg, 1 animal was used, and for the group administered with physiological saline, 3 animals were used. For 30 minutes after intratracheal administration, a mean blood pressure was measured.

Data set [4] has as its system ADP receptors (P2Y1, P2Y2). Conditions: in-vitro tests, Non-Patent Citation 3; cited from earlier work.
Data set [5] concerns LTD4-induced airway contraction. Description: Action on the LTD4-induced airway contraction response by intratracheal administration. The class given is in vivo, Hartley male guinea pigs. The conditions noted are these: guinea pigs. The procedure:
Hartley male guinea pigs (Japan SLC, Inc.) were used in experiments. Urethane (1.2 g/kg) was administered intraperitoneally to the guinea pigs for anesthesia. Using needles (30 G), the test compounds (0.3, 1, and 3 μg/kg) at a volume of 0.5 mL/kg or physiological saline was administered by intratracheal injection (3 animals in each group). Cannulation for intravenous administration was carried out in the external jugular vein of the guinea pigs. A tracheostomy cannula was inserted through an incision in the trachea and mechanical ventilation (10 mL/kg, 60 times/min) was carried out using a mechanical ventilator (MODEL683, HARVARD). The mechanical ventilator circuit was connected with a pressure transducer (TP-400T, Nihon Kohden Corporation) and the change in airway pressure was measured. The airway pressure signal was amplified with a strain pressure amplifier (AP-601G, Nihon Kohden Corporation) and recorded on chart paper by a thermal pen recorder (LINEARCORDER F WR3701, Graphtec). The body temperature of the guinea pigs was maintained at 37° C. using a body temperature-maintaining device (BWT-100, Bio Research Center). At 30 minutes after injection by intratracheal administration of the test compound, a solution of LTD4 in physiological saline (0.3 μg/kg) was administered intravenously to induce the airway contraction response.

Data set [6] has as its system tobacco smoke inhalation-induced airway inflammation. The data set is described as follows: Action of nasal drop administration on the tobacco smoke inhalation-induced airway inflammation. The class given is in vivo, BALB/c male mice. The conditions noted are these: mice, nasal drop 1, 10 and 100 μg/kg once a day; bronchoalveolar lavage cell count at Day 11. On the procedure: BALB/c male mice (Charles River Laboratories Japan, Inc.) were used in experiments. Sodium pentobarbital (40 mg/kg) was administered intraperitoneally to the mice for anesthesia. During a period of time ranging from Day 0 to Day 10 (except for Days 5 and 6), the test compound (1, 10, and 100 μg/kg) were administered nasally to the mice once a day. The Vehicle group was similarly injected with physiological saline by nasal drop administration. There were 10 animals in each group. The mice were put into chambers at 1 hour after nasal drop administration, and using a tobacco smoke generator (SG-200, Sibata Scientific Technology Ltd.), the tobacco smoke was inhaled to a concentration in air up to 4% for 1 hour. After intraperitoneal administration of sodium pentobarbital (80 mg/kg) to the mice at Day 11, the mice were subject to blood removal to be euthanized. After respiratory arrest, the trachea was incised, bronchoalveolar lavage was performed with PBS(−) 0.5 mL×3 times, and the washing liquid was collected. The supernatant was removed by centrifugation, the cells were then resuspended in PBS(−), and for white blood cells (WBC), neutrophils (NEUT), lymphocytes (LYMPH), macrophages (MONO), and eosinophils (EO), the cell count was measured with a Multiple Parameter Automatic Hematology Analyzer (XT-2000i, Sysmex Corporation).

The subject of data set [7] is muscarinic receptors (M1). Conditions: in-vitro tests, Non-Patent Citation 3; cited from earlier work.
In data set [8] the test system is blood pressure. Conditions: intravenous 30 μg/kg, Non-Patent Citation 4; cited from earlier work.
Where [9] appears, read: intratracheal 100 μg/kg, 1 animal.

On to `C=C1C(=O)N[C@@H](C)C(=O)N(C)[C@@H](C)C(=O)N[C@@H]([C@H](OC(=O)[C@@H](NC(C)=O)[C@H](O)C(C)C)C(C)C)C(=O)N(C)C([C@@H](C)OC)C(=O)O[C@H](C)[C@H](NC(C)=O)C(=O)O[C@H](Cc2ccccc2)C(=O)N1C` (stereo partly drawn) [Ref 1] (Ac-T[dPhLac][NMeDha]A[NMeA][Leu(3R-O(AcLeu(3R-OH)))][X1]; ester 1-C), for which the “human platelet aggregation caused by ADP” value in data set [1] is listed as “inhibits”. For the same compound, the “inhibition of G15 and G16” value in data set [2] is given as “does not inhibit”. Moreover, the “amount having no action on the carotid artery pressure” value in data set [3] (intratracheal) is recorded as “at least 30 μg/kg”. In data set [3] (intratracheal 30 μg/kg), the “Reduction in blood pressure After 10 min” value worked out at 7±5.2 mmHg, the “Reduction in blood pressure Max in 30 min” value stood at 22±3.3 mmHg and the “reduction in blood pressure compared with physiological saline group” value is on record as “no significant difference”. The “reduction in blood pressure (in words)” value in data set [3] (intratracheal 100 μg/kg) was “remarkable reduction in blood pressure”. For the same compound, in data set [3] (setting [9]), the “Reduction in blood pressure After 10 min” value came out at 65 mmHg and the “Reduction in blood pressure Max in 30 min” value is on record as 95 mmHg. In addition, the “gap between maximum amount having no action on carotid artery pressure and ED50 of inhibitory action on airway contraction” value in data set [3] (intratracheal, 30 μg/kg vs 0.73 μg/kg) was “at least 40 times”. In data set [4], the “reactions of ADP receptors (P2Y1, P2Y2)” value is “inhibits”. The ED50 in data set [5] (Cavia porcellus, iv, intratracheal, 30 minutes before LTD4 0.3 μg/kg i.v., read-out: ED50 value of inhibition of LTD4-induced airway contraction) turned out to be 1.1 µg/kg. Moreover, the “LTD4-induced airway contraction response” value in data set [5] (intratracheal administration) was “inhibited”. Also, in data set [6], the “infiltration of eosinophils into the airway” value is “significantly inhibited”, the “infiltration of lymphocytes into the airway” value is listed as “significantly inhibited” and the “infiltration of neutrophils into the airway” value is “significantly inhibited”. The “reactions of muscarinic receptors (M1)” value in data set [7] is “inhibits”. In addition, the hypotensive action entry in data set [8] was “hypotensive action”.
